Experimental data reported in patent US20260028354A1, “TETRAHYDRONAPHTHALENE DERIVATIVES AS ESTROGEN RECEPTOR DEGRADERS” (REGENT OF THE UNIVERSITY OF MICHIGAN, priority 2022, published 2026).
Where two headings read alike, the source gives them in different places.

Assays:
ER in MCF-7 cells = ER in MCF-7 cells (Homo sapiens (Human), UniProt P03372); experiment: In-cell Western (ICW) ER degradation assay in MCF-7 cells; type: cell-based; settings: for DC50: MCF-7, ER degradation, read-out: MCF7 DC50
ERα_LBD (GST) = ERα_LBD (GST) (Homo sapiens (Human), UniProt P03372); experiment: IC50 measurements for binding to ERα_LBD (GST), LanthaScreen TR-FRET competitive binding; settings: ERα_LBD (GST) 4 nM, Fluormone ES2 Green tracer, 60 min; read-out: ERα HTRF IC50
Description: In vitro Assay: IC50 Measurements for binding to ERα_LBD (GST) • Final assay conditions: • 1. ERα_LBD (GST) protein: 4 nM • 2. Tb Anti-GST: 2 nM • 3. Fluormone ES2 Green tracer: 3 nM • 4. Incubation time: 60 min • 5. DMSO: 1% • 6. Assay buffer: Adding 1M DTT to Nuclear receptor Buffer K for final 5 mM DTT. • 7. ZPE: 1% DMSO • 8. HPE: 1 μM ARV_471 (positive control) • 9. LanthaScreen® TR-FRET ERα Competitive Binding Assay (ThermoFisher, #A^15887) • 100× Compound preparation
1) Cherry pick 2 μL 10 mM compound stock to column 1 of a 384 intermediate plate. • 2) Add 18 μL DMSO to column 1 to dilute compound to 1 mM. • 3) Transfer 10 μL 1 mM compound to column 1 of a LDV plate. • 2) Add 6 μl DMSO to column 2-10 of the LDV plate. • 3) Compounds undergo 3-fold serial dilution (3 μL+6 μL) in DMSO. • 4) Transfer 120 nL compound solution to assay plate. ZPE: 120 nL 100% DMSO • Procedure:
Complete nuclear receptor buffer K was prepared by adding 1 M DTT to nuclear receptor buffer K for a final concentration of 5 mM DTT. Complete nuclear receptor buffer K must be prepared fresh daily, 2X protein solution was prepared using complete nuclear receptor buffer K containing 8 nM ERα_LBD (GST) and 4 nM Tb Anti-GST. Then, 2X Fluormone ES2 Green tracer (6 nM) was prepared using complete nuclear receptor buffer K. Add 6 μL 2X Fluormone ES2 green tracer into a compound plate (PerkinElmer 6008289) by dragonfly with one-tips-addition. Subsequently, 6 μL 2× protein solution was added into the plate. The 384-well plate was mixed on a plate shaker and incubated at room temperature protected from light for 60 min. The plate was scaled with a cover to minimize evaporation. The plate was read at wavelengths of 520 nm and 495 nm. The TR-FRET ratio was calculated by dividing the emission signal at 520 nm by the emission signal at 495 nm. A binding curve was generated by plotting the emission ratio vs, the log [ligand]. To determine the IC50 value, fit the data using XL-fit for a sigmoidal dose-response.

ER in T47D cells = ER in T47D cells (Homo sapiens (Human), UniProt P03372); experiment: In-cell Western (ICW) ER degradation assay in T47D cells; type: cell-based; settings: for DC50: ER degradation
CRBN/DDB1 = CRBN/DDB1 (Homo sapiens (Human), UniProt Q96SW2); type: binding; settings: His tagged CRBN+DDB1, Cy5-labeled Thalidomide probe, one hour; read-out: CRBN HTRF IC50
Description: The binding potency was determined using HTRF assay technology (Perkin Elmer). Compounds were serially diluted in DMSO and […] volume was transferred to white 384-well plate.

[1] = MCF7, MCF-7, maximal ER degradation, 16 hrs treatment, read-out: MCF7 Dmax
[2] = maximal ER degradation, 16 hrs treatment, read-out: T47D Dmax
[3] = MCF7, read-out: MCF7 Dmax, MCF-7, maximal ER degradation, 16 hrs treatment
[4] = read-out: T47D Dmax, T47D, maximal ER degradation, 16 hrs treatment

Sequence of ER in T47D cells (P03372 whole entry): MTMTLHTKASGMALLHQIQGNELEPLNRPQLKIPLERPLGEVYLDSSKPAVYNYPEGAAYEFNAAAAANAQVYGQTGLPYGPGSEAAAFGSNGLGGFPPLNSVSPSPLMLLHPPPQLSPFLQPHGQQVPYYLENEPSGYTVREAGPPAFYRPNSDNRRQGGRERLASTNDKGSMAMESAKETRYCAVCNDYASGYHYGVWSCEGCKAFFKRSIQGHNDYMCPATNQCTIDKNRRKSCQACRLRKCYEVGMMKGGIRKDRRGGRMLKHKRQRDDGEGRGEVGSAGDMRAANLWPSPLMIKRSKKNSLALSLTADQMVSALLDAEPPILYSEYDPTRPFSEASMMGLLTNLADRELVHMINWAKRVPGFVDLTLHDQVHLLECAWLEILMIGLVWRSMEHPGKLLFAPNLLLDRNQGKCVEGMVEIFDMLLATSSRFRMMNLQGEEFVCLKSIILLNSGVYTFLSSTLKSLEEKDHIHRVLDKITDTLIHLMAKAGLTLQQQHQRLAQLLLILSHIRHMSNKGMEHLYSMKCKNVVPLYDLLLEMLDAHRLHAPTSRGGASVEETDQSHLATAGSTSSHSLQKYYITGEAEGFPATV
Sequence of ER in MCF-7 cells (P03372 whole entry): as above
Sequence of ERα_LBD (GST) (P03372 311-547): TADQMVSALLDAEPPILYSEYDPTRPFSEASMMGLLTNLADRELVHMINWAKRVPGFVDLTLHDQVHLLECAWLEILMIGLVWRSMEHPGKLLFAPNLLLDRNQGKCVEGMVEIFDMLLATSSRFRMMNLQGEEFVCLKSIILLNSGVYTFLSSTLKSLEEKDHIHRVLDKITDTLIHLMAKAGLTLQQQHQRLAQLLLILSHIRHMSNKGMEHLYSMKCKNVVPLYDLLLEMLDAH
Sequence of CRBN/DDB1 (Q96SW2 whole entry, species assumed): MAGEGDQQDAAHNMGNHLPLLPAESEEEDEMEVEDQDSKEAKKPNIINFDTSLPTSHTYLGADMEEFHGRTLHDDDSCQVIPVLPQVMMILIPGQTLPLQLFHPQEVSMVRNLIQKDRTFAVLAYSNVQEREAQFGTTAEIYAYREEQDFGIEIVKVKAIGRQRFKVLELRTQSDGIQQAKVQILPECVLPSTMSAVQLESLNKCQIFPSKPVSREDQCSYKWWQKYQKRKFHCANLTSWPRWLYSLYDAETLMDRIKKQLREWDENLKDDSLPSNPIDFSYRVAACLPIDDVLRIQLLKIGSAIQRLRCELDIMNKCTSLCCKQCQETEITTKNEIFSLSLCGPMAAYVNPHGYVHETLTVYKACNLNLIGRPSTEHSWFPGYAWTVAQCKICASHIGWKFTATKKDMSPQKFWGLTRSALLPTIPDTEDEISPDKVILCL
Sequence of CRBN/DDB1 (Q16531 whole entry partner, species assumed): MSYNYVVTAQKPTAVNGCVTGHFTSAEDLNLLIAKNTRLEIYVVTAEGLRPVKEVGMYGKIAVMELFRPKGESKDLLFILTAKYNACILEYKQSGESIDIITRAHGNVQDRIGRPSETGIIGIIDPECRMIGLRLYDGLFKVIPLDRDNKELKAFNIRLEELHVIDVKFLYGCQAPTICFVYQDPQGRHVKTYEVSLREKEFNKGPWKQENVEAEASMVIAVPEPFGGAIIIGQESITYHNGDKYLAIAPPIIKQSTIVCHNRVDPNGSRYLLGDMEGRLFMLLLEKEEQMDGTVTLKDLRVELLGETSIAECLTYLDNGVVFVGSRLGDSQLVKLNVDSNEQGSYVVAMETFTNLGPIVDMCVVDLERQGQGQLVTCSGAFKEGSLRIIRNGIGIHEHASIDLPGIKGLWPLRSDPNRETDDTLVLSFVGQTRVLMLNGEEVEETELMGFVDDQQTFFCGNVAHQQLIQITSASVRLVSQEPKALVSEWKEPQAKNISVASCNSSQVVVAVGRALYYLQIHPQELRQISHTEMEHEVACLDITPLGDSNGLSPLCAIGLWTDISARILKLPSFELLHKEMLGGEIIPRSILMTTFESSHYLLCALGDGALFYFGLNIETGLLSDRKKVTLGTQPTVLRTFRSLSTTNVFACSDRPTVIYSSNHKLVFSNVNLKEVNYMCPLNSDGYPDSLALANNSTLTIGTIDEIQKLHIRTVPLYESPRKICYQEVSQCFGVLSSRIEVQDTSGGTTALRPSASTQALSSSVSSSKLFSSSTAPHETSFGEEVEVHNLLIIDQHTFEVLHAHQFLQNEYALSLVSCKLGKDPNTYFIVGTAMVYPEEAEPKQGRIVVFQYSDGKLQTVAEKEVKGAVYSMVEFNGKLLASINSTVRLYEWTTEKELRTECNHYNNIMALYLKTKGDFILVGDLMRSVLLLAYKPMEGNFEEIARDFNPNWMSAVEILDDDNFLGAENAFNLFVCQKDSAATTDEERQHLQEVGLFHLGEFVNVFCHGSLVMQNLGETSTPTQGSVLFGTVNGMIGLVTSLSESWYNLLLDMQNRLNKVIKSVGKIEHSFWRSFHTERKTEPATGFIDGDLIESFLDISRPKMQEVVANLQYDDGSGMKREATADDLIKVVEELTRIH

Compound	Dmax (ER in MCF-7 cells; [1])	DC50 (ER in MCF-7 cells; 16 hrs treatment)	IC50 (ERα_LBD (GST))	DC50 (ER in T47D cells; 16 hrs treatment)	Dmax (ER in T47D cells; [2])	Dmax (ER in MCF-7 cells; [3])	Dmax (ER in T47D cells; [4])	IC50 (CRBN/DDB1)	MCF7 Dmax (ER in MCF-7 cells; MCF-7, maximal ER degradation, 16 hrs treatment)
COc1cc(N2CCC3(CC2)CC(CN2CCC(c4ccc(N[C@H]5CCC(=O)NC5=O)cc4)CC2)C3)c(F)cc1[C@@H]1c2ccc(O)cc2CC[C@@H]1c1ccccc1 (single isomer, unassigned) [Compound A30]	50 to 75%	< 1 nM	< 10 nM	< 1 nM	> 75%				
COc1cc(N2CCC3(CC2)CC(CN2CCC(c4ccc(N[C@H]5CCC(=O)NC5=O)cc4)CC2)C3)c(F)cc1[C@H]1c2ccc(O)cc2CC[C@H]1c1ccccc1 (single isomer, unassigned) [Compound A32]	50 to 75%	10 to 100 nM	> 100 nM	10 to 100 nM	50 to 75%				
COc1cc(N2CCC3(CC2)CC(CN2CCN4c5ccc6c(c5OC[C@H]4C2)CN([C@H]2CCC(=O)NC2=O)C6=O)CO3)ccc1[C@H]1c2ccc(O)cc2CC[C@H]1c1ccccc1 (single isomer, unassigned) [Compound A52]		< 1 nM	< 10 nM	< 1 nM		50 to 75%	> 75%		
COc1cc(N2CCC3(CC2)CC(CN2CCN4c5cc6c(cc5OC[C@@H]4C2)C(=O)N([C@H]2CCC(=O)NC2=O)C6)CO3)ccc1[C@H]1c2ccc(O)cc2CC[C@H]1c1ccccc1 (single isomer, unassigned) [Compound A56]		< 1 nM	< 10 nM	< 1 nM		50 to 75%	> 75%		
O=C1CC[C@H](N2Cc3c(ccc4c3OC[C@H]3CN(CC5CC6(CCN(c7ccc([C@@H]8c9ccc(O)cc9CC[C@@H]8c8ccccc8)cn7)CC6)C5)CCN43)C2=O)C(=O)N1 (single isomer, unassigned) [Compound A112]	> 75%	< 1 nM	< 10 nM					50 to 500 nM	
O=C1CC[C@H](N2Cc3c(ccc4c3OC[C@H]3CN(CC5CCC6(CC5)CN(c5ccc([C@@H]7c8ccc(O)cc8CC[C@@H]7c7ccccc7)cn5)C6)CCN43)C2=O)C(=O)N1 (single isomer, unassigned) [Compound A123]	> 75%		< 10 nM		> 75%				
COc1cc(N2CCC3(CC2)C[C@H](CN2CCN4c5ccc6c(c5OC[C@H]4C2)CN([C@H]2CCC(=O)NC2=O)C6=O)CO3)ccc1[C@@H]1c2ccc(O)cc2CC[C@@H]1c1ccccc1 (single isomer, unassigned) [Compound A133]	> 75%	< 1 nM	< 10 nM						
COc1cc(N2CCC3(CC2)C[C@@H](CN2CCN4c5ccc6c(c5OC[C@H]4C2)CN([C@H]2CCC(=O)NC2=O)C6=O)CO3)ccc1[C@@H]1c2ccc(O)cc2CC[C@@H]1c1ccccc1 (single isomer, unassigned) [Compound A134]	> 75%	< 1 nM	< 10 nM						
COc1cc(N2CCC(CN3CCC4(CC3)COc3cc5c(cc34)CN([C@H]3CCC(=O)NC3=O)C5=O)CC2)ccc1[C@@H]1c2ccc(O)cc2CC[C@@H]1c1ccccc1 [Compound A33, (R)-3-(1′-((1-(4-((1R,2R)-6-hydroxy-2-phenyl-1,2,3,4-tetrahydronaphthalen-1-yl)-3-methoxyphenyl)piperidin-4-yl)methyl)-7-oxo-5,7-dihydro-2H,6H-spiro[furo[2,3-f]iso-indole-3,4′-piperidin]-6-yl)-piperidine-2,6-dione]		< 1 nM	< 10 nM	< 1 nM		50 to 75%	50 to 75%		
COC1(CN2CCN3c4ccc5c(c4OC[C@H]3C2)CN([C@H]2CCC(=O)NC2=O)C5=O)CCN(c2ccc([C@@H]3c4ccc(O)cc4CC[C@@H]3c3ccccc3)cc2)CC1 [Compound A82, (S)-3-((R)-7-((1-(4-((1R,2S)-6-hydroxy-2-phenyl-1,2,3,4-tetrahydronaphthalen-1-yl)-phenyl)-4-methoxypiperidin-4-yl)methyl)-1-oxo-1,3,5,5a,6,7,8,9-octahydro-2H-pyrazino [1′,2′:4,5][1,4]oxazino[2,3-c]isoindol-2-yl)piperidine-2,6-dione]	> 75%	< 1 nM	< 10 nM					50 to 500 nM	
COc1cc(N2CCC(CN3CCN4c5cc6c(cc5OC[C@@H]4C3)C(=O)N([C@H]3CCC(=O)NC3=O)C6)CC2)c(F)cc1[C@@H]1c2ccc(O)cc2CC[C@@H]1c1ccccc1 [Compound A91, (S)-3-((S)-3-((1-(2-fluoro-4-((1S,2S)-6-hydroxy-2-phenyl-1,2,3,4-tetrahydronaphthalen-1-yl)-5-methoxyphenyl)piperidin-4-yl)methyl)-8-oxo-3,4,4a,5-tetrahydro-1H-pyrazino[1′,2′: 4,5][1,4]oxazino[2,3-f]isoindol-9 (2H,8H,10H)-yl)piperidine-2,6-dione]	> 75%	< 1 nM	< 10 nM	< 1 nM	> 75%				
COc1cc(N2CCC3(CC2)CC(CN2CCN4c5ccc6c(c5OC[C@H]4C2)CN([C@H]2CCC(=O)NC2=O)C6=O)C3)c(F)cc1[C@@H]1c2ccc(O)cc2CC[C@@H]1c1ccccc1 [Compound A99, (S)-3-((R)-7-((7-(2-fluoro-4-((1S,2S)-6-hydroxy-2-phenyl-1,2,3,4-tetrahydronaphthalen-1-yl)-5-methoxyphenyl)-7-azaspiro[3.5]nonan-2-yl)methyl)-1-oxo-1,3,5,5a,6,7,8,9-octahydro-2H-pyrazino[1′,2′:4,5][1,4]oxazino[2,3-e]isoindol-2-yl)piperidine-2,6-dione]	> 75%	< 1 nM	< 10 nM	< 1 nM	> 75%				
COc1cc(N2CCC3(CC2)CC(CN2CCN4c5cc6c(cc5OC[C@@H]4C2)C(=O)N([C@H]2CCC(=O)NC2=O)C6)C3)c(F)cc1[C@@H]1c2ccc(O)cc2CC[C@@H]1c1ccccc1 [Compound A101, (S)-3-((S)-3-((7-(2-fluoro-4-((1S,2S)-6-hydroxy-2-phenyl-1,2,3,4-tetrahydronaphthalen-1-yl)-5-methoxyphenyl)-7-azaspiro[3.5]nonan-2-yl)methyl)-8-oxo-1,2,3,4,4a,5,8,10-octahydro-9H-pyrazino[1′,2′: 4,5][1,4]oxazino[2,3-f]isoindol-9-yl)piperidine-2,6-dione]	> 75%	< 1 nM	< 10 nM						
COc1cc(N2CCC3(CC2)CC(CN2CCC4(CC2)COc2cc5c(cc24)CN([C@H]2CCC(=O)NC2=O)C5=O)C3)c(F)cc1[C@@H]1c2ccc(O)cc2CC[C@@H]1c1ccccc1 [Compound A129, (S)-3-(1′-((7-(2-fluoro-4-((1S,2S)-6-hydroxy-2-phenyl-1,2,3,4-tetrahydronaphthalen-1-yl)-5-methoxyphenyl)-7-azaspiro[3.5]nonan-2-yl)methyl)-7-oxo-5,7-dihydro-2H,6H-spiro[furo[2,3-f]isoindole-3,4′-piperidin]-6-yl)piperidine-2,6-dione]		< 1 nM	< 10 nM	< 1 nM		> 75%	> 75%		
(S)-3-(1′-((2-(2-fluoro-4-((1S,2S)-6-hydroxy-2-phenyl-1,2,3,4-tetrahydronaphthalen-1-yl)-5-methoxyphenyl)-2-azaspiro[3.5]nonan-7-yl)methyl)-7-oxo-5,7-dihydro-2H,6H-spiro[furo[2,3-f]isoindole-3,4′-piperidin]-6-yl)piperidine-2,6-dione [Compound A166]		< 1 nM	< 10 nM						B (“B”: >50 and <75%)
